Reference: US9611277B2 (Janssen Pharmaceutica NV, priority 2013, dated 2017)

Key:
[1] = target: human orexin 2 receptor (Homo sapiens (Human), UniProt O43614); experiment: Human orexin 2 receptor radioligand binding; details: human orexin 2 receptor; averages of 2-20 runs; read-out: hOX2 Ki
In short: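 Ki derived from one-site competition IC50 using predetermined Kd of [3H]-EMPA, triplicate points, 2-20 runs averaged. Binding done on homogenized HEK293 cells stably expressing human orexin 2 receptor, DMSO ≤0.1%, with 10 μM almorexant defining nonspecific binding; filtered, washed, scintillation counted.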

[2] = target: human orexin 1 receptor (Homo sapiens, UniProt O43613); experiment: Human orexin 1 receptor radioligand binding; details: human orexin 1 receptor; averages of 2-20 runs; read-out: hOX1 Ki
In short: (§1)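 Ki values derive from one-site competition IC50s corrected with the radioligand's predetermined Kd, triplicates per run, averaged over 2-20 runs. Cell homogenates (rat or human OX1R) compete against [^3H]-thiazolyl-oxadiazolyl-pyrrolidine methanone in PBS; 10 μM almorexant sets nonspecific binding; scintillation counting after washing.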

[3] = target: rat orexin 1 receptor (Rattus norvegicus, UniProt P56718); experiment: Rat orexin 1 receptor radioligand binding; details: rat orexin 1 receptor; averages of 2-20 runs; read-out: rOX1 Ki
In short: as §1

human orexin 2 receptor, sequence (O43614 whole entry): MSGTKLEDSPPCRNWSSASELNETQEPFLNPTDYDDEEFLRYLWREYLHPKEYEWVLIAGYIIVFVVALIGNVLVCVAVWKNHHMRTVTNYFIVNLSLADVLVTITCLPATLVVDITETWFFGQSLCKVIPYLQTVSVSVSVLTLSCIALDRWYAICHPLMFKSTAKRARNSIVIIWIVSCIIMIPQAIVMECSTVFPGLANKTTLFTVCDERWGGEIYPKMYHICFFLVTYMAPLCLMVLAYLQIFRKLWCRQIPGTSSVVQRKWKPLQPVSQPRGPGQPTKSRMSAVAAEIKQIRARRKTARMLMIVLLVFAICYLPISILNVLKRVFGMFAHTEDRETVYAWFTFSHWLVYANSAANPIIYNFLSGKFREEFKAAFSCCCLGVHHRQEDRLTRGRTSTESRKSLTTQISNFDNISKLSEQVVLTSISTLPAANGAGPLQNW

| Structure (SMILES) | Ki [1] [nM] | Ki [2] [nM] | Ki [3] [nM] |
| --- | --- | --- | --- |
| O=C(c1ccccc1-n1nccn1)N1C[C@H]2C[C@@H](Oc3ccc(Cl)cn3)[C@@H]1C2 [Example 112, (2-(2H-1,2,3-triazol-2-yl)phenyl)((1S,4R,6R)-6-((5-chloropyridin-2-yl)oxy)-2-azabicyclo[2.2.1]heptan-2-yl)methanone] | 459 | 10 | 8 |
| O=C(c1cc(F)ccc1-n1nccn1)N1C[C@H]2C[C@@H](Oc3ccc(Cl)cn3)[C@@H]1C2 [Example 113, ((1S,4R,6R)-6-((5-chloropyridin-2-yl)oxy)-2-azabicyclo[2.2.1]heptan-2-yl)(5-fluoro-2-(2H-1,2,3-triazol-2-yl)phenyl)methanone] | 984 | 14 | 17 |
| Cc1ccc(-n2nccn2)c(C(=O)N2C[C@H]3C[C@@H](Oc4ccc(Cl)cn4)[C@@H]2C3)n1 [Example 114, ((1S,4R,6R)-6-((5-chloropyridin-2-yl)oxy)-2-azabicyclo[2.2.1]heptan-2-yl)(6-methyl-3-(2H-1,2,3-triazol-2-yl)pyridin-2-yl)methanone] | 668 | 23 | 11 |
| O=C(c1cccc(F)c1-c1ncccn1)N1C[C@H]2C[C@@H](Oc3ccc(Cl)cn3)[C@@H]1C2 [Example 115, ((1S,4R,6R)-6-((5-chloropyridin-2-yl)oxy)-2-azabicyclo[2.2.1]heptan-2-yl)(3-fluoro-2-(pyrimidin-2-yl)phenyl)methanone] | 852 | 8 | 7 |
| O=C(c1ccccc1-c1ncc(F)cn1)N1C[C@H]2C[C@@H](Oc3ccc(Cl)cn3)[C@@H]1C2 [Example 116, ((1S,4R,6R)-6-((5-chloropyridin-2-yl)oxy)-2-azabicyclo[2.2.1]heptan-2-yl)(2-(5-fluoropyrimidin-2-yl)phenyl)methanone] | 939 | 12 | 11 |
| O=C(c1cccc(F)c1-c1ncc(F)cn1)N1C[C@H]2C[C@@H](Oc3ccc(Cl)cn3)[C@@H]1C2 [Example 117, ((1S,4R,6R)-6-((5-chloropyridin-2-yl)oxy)-2-azabicyclo[2.2.1]heptan-2-yl)(3-fluoro-2-(5-fluoropyrimidin-2-yl)phenyl)methanone] | 1600 | 28 | 16 |
| O=C(c1ccccc1-n1nccn1)N1C[C@H]2C[C@@H](Oc3ccc(F)cn3)[C@@H]1C2 [Example 118, (2-(2H-1,2,3-triazol-2-yl)phenyl)((1S,4R,6R)-6-((5-fluoropyridin-2-yl)oxy)-2-azabicyclo[2.2.1]heptan-2-yl)methanone] | 1600 | 105 | 133 |
| O=C(c1cccc(F)c1-c1ncccn1)N1C[C@H]2C[C@@H](Oc3ccc(F)cn3)[C@@H]1C2 [Example 120, (3-fluoro-2-(pyrimidin-2-yl)phenyl)((1S,4R,6R)-6-((5-fluoropyridin-2-yl)oxy)-2-azabicyclo[2.2.1]heptan-2-yl)methanone] | 4100 | 111 | 60 |
| O=C(c1ccccc1-n1nccn1)N1C[C@H]2C[C@@H](Oc3ccc(C(F)F)cn3)[C@@H]1C2 [Example 121, (2-(2H-1,2,3-triazol-2-yl)phenyl)((1S,4R,6R)-6-((5-(difluoromethyl)pyridin-2-yl)oxy)-2-azabicyclo[2.2.1]heptan-2-yl)methanone] | 50 | 11 | 10 |
| Cc1ccc(-n2nccn2)c(C(=O)N2C[C@H]3C[C@@H](Oc4ccc(C(F)F)cn4)[C@@H]2C3)n1 [Example 122, ((1S,4R,6R)-6-((5-(difluoromethyl)pyridin-2-yl)oxy)-2-azabicyclo[2.2.1]heptan-2-yl)(6-methyl-3-(2H-1,2,3-triazol-2-yl)pyridin-2-yl)methanone] | 218 | 30 | 28 |
| O=C(c1cccc(F)c1-c1ncccn1)N1C[C@H]2C[C@@H](Oc3ccc(C(F)F)cn3)[C@@H]1C2 [Example 123, ((1S,4R,6R)-6-((5-(difluoromethyl)pyridin-2-yl)oxy)-2-azabicyclo[2.2.1]heptan-2-yl)(3-fluoro-2-(pyrimidin-2-yl)phenyl)methanone] | 149 | 10 | 11 |
| O=C(c1cc(F)ccc1-n1nccn1)N1C[C@H]2C[C@@H](Oc3cnc(C(F)(F)F)cn3)[C@@H]1C2 [Example 124, (5-fluoro-2-(2H-1,2,3-triazol-2-yl)phenyl)((1S,4R,6R)-6-((5-(trifluoromethyl)pyrazin-2-yl)oxy)-2-azabicyclo[2.2.1]heptan-2-yl)methanone] | 4500 | 109 | 200 |
| Cc1ccc(-n2nccn2)c(C(=O)N2C[C@H]3C[C@@H](Oc4cnc(C(F)(F)F)cn4)[C@@H]2C3)n1 [Example 125, (6-methyl-3-(2H-1,2,3-triazol-2-yl)pyridin-2-yl)((1S,4R,6R)-6-((5-(trifluoromethyl)pyrazin-2-yl)oxy)-2-azabicyclo[2.2.1]heptan-2-yl)methanone] | 5500 | 88 | 220 |
| O=C(c1cccc(F)c1-c1ncccn1)N1C[C@H]2C[C@@H](Oc3cnc(C(F)(F)F)cn3)[C@@H]1C2 [Example 126, (3-fluoro-2-(pyrimidin-2-yl)phenyl)((1S,4R,6R)-6-((5-(trifluoromethyl)pyrazin-2-yl)oxy)-2-azabicyclo[2.2.1]heptan-2-yl)methanone] | 4200 | 22 | 27 |
| O=C(c1ccc(F)cc1-c1ncccn1)N1C[C@H]2C[C@@H](Oc3cnc(C(F)(F)F)cn3)[C@@H]1C2 [Example 127, (4-fluoro-2-(pyrimidin-2-yl)phenyl)((1S,4R,6R)-6-((5-(trifluoromethyl)pyrazin-2-yl)oxy)-2-azabicyclo[2.2.1]heptan-2-yl)methanone] | > 10000 | 143 | 116 |
| O=C(c1cc(F)ccc1-c1ncccn1)N1C[C@H]2C[C@@H](Oc3cnc(C(F)(F)F)cn3)[C@@H]1C2 [Example 128, (5-fluoro-2-(pyrimidin-2-yl)phenyl)((1S,4R,6R)-6-((5-(trifluoromethyl)pyrazin-2-yl)oxy)-2-azabicyclo[2.2.1]heptan-2-yl)methanone] | 3800 | 62 | 69 |
| O=C(c1c(F)cccc1-c1ncccn1)N1C[C@H]2C[C@@H](Oc3cnc(C(F)(F)F)cn3)[C@@H]1C2 [Example 129, (2-fluoro-6-(pyrimidin-2-yl)phenyl)((1S,4R,6R)-6-((5-(trifluoromethyl)pyrazin-2-yl)oxy)-2-azabicyclo[2.2.1]heptan-2-yl)methanone] | 4400 | 47 | 53 |
| O=C(c1ccccc1-c1ncccn1)N1C[C@H]2C[C@@H](Oc3cnc(C(F)(F)F)cn3)[C@@H]1C2 [Example 130, (2-(pyrimidin-2-yl)phenyl)((1S,4R,6R)-6-((5-(trifluoromethyl)pyrazin-2-yl)oxy)-2-azabicyclo[2.2.1]heptan-2-yl)methanone] | 3500 | 27 | 29 |
| Cc1cnc(O[C@@H]2C[C@H]3C[C@@H]2N(C(=O)c2ccccc2-n2nccn2)C3)nc1 [Example 131, (2-(2H-1,2,3-triazol-2-yl)phenyl)((1S,4R,6R)-6-((5-methylpyrimidin-2-yl)oxy)-2-azabicyclo[2.2.1]heptan-2-yl)methanone] | 2200 | 132 | 140 |
| Cc1cnc(O[C@@H]2C[C@H]3C[C@@H]2N(C(=O)c2cccc(F)c2-c2ncccn2)C3)nc1 [Example 133, (3-fluoro-2-(pyrimidin-2-yl)phenyl)((1S,4R,6R)-6-((5-methylpyrimidin-2-yl)oxy)-2-azabicyclo[2.2.1]heptan-2-yl)methanone] | 4200 | 102 | 60 |
| CCc1cnc(O[C@@H]2C[C@H]3C[C@@H]2N(C(=O)c2ccccc2-n2nccn2)C3)nc1 [Example 135, (2-(2H-1,2,3-triazol-2-yl)phenyl)((1S,4R,6R)-6-((5-ethylpyrimidin-2-yl)oxy)-2-azabicyclo[2.2.1]heptan-2-yl)methanone] | 1200 | 100 | 61 |
| CCc1cnc(O[C@@H]2C[C@H]3C[C@@H]2N(C(=O)c2cccc(F)c2-c2ncccn2)C3)nc1 [Example 137, ((1S,4R,6R)-6-((5-ethylpyrimidin-2-yl)oxy)-2-azabicyclo[2.2.1]heptan-2-yl)(3-fluoro-2-(pyrimidin-2-yl)phenyl)methanone] | 1700 | 65 | 39 |
| O=C(c1ccccc1-n1nccn1)N1C[C@H]2C[C@@H](Oc3ccc(C(F)(F)F)nn3)[C@@H]1C2 [Example 139, (2-(2H-1,2,3-triazol-2-yl)phenyl)((1S,4R,6R)-6-((6-(trifluoromethyl)pyridazin-3-yl)oxy)-2-azabicyclo[2.2.1]heptan-2-yl)methanone] | 3700 | 150 | 208 |
| O=C(c1cccc(F)c1-c1ncccn1)N1C[C@H]2C[C@@H](Oc3ccc(C(F)(F)F)nn3)[C@@H]1C2 [Example 141, (3-fluoro-2-(pyrimidin-2-yl)phenyl)((1S,4R,6R)-6-((6-(trifluoromethyl)pyridazin-3-yl)oxy)-2-azabicyclo[2.2.1]heptan-2-yl)methanone] | > 10000 | 348 | 208 |
